Literature values, collected in patent publication US20140343147A1, “NUTRITIONAL SUPPLEMENT FOR THE ENHANCEMENT OF MUSCLE PERFORMANCE AND RECOVERY AND METHODS OF USE THEREOF” (Maximum Human Performance, LLC, priority 2011, published 2014).

Tests used:
humans = settings: daily dose
rats = settings: daily dose
mice = settings: iv. in mice, Na-salt
[1] = colorless crystals; water and alcohol

Row | Structure (SMILES) | luteinizing hormone levels (humans) | testosterone levels (humans) | luteinizing hormone levels (rats) | testosterone levels (rats) | LD50 (mice) [mg/kg] | solubility [1]
1 | N[C@H](CC(=O)O)C(=O)O [D-aspartic acid] | increase | increase | increase | increase | – | –
2 | CC(C)CC(O)C(=O)O (stereo not drawn) [HICA, 2-hydroxy-4-methylvaleric acid] | – | – | – | – | 650 | soluble in water and alcohol
